Where a chain is given by its changes, count along the chain named.
Tests used:
Assay in all cases: ATP hydrolysis, [γ-32P]-ATP TLC, Michaelis-Menten fit
Type in all cases: biochemical
Details in all cases: M13 ssDNA 1.5 μM nt, 10 nM Pif1, 5 mM MgCl2, 60 mM KCl, pH 7.5, 30 °C, no RPA; labelled compound as tracer
GFP-Pif1 [1] = target: T1, GFP-Pif1 (Saccharomyces cerevisiae, UniProt P07271, H303A)
T1 construct: N-terminal superfolder GFP fusion of nuclear isoform residues 40-859, pRSF-Duet-1, E. coli Rosetta2(DE3), Ni-NTA purified
T1 sequence (P07271 40-859 H303A): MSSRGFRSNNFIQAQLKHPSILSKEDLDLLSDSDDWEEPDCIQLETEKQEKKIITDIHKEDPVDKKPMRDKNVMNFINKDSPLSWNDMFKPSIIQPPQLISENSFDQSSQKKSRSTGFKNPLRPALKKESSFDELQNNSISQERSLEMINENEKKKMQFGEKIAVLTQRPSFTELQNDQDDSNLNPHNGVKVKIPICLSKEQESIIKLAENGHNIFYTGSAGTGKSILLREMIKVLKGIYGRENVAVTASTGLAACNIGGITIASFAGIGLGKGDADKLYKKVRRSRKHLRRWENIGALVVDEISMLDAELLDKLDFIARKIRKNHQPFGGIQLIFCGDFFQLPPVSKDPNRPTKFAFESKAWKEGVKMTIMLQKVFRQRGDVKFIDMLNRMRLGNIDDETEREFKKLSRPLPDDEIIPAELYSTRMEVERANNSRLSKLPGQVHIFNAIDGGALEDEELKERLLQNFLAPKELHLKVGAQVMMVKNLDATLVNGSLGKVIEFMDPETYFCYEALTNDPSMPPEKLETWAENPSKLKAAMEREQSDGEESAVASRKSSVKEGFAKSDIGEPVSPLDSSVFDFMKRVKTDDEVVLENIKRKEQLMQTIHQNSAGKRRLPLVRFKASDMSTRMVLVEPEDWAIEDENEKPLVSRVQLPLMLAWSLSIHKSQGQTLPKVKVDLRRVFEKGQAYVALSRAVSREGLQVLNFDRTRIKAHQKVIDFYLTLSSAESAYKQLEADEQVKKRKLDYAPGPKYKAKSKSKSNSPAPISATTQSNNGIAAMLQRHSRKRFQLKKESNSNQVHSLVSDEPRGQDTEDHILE
Method: (§1) ATP hydrolysis, [γ-32P]-ATP TLC, Michaelis-Menten fit on GFP-Pif1 | each of the mutant proteins was tested for ATPase activity

GFP-Pif1 [2] = target: T2, GFP-Pif1 (Saccharomyces cerevisiae, UniProt P07271, K312A)
T2 construct: N-terminal superfolder GFP fusion of nuclear isoform residues 40-859, pRSF-Duet-1, E. coli Rosetta2(DE3), Ni-NTA purified
T2 sequence (P07271 40-859 K312A): T1 sequence (P07271 40-859 H303A) with A264H, K273A
Method: as §1

GFP-Pif1 [3] = target: T3, GFP-Pif1 (Saccharomyces cerevisiae, UniProt P07271, L310A)
T3 construct: N-terminal superfolder GFP fusion of nuclear isoform residues 40-859, pRSF-Duet-1, E. coli Rosetta2(DE3), Ni-NTA purified
T3 sequence (P07271 40-859 L310A): T1 sequence (P07271 40-859 H303A) with A264H, L271A
Method: as §1

Nc1ncnc2c1ncn2[C@@H]1O[C@H](COP(=O)(O)OP(=O)(O)OP(=O)(O)O)[C@@H](O)[C@H]1O [ATP]
Km (GFP-Pif1 [1]): 870 ± 1320 µM | Km (GFP-Pif1 [2]): 380 ± 310 µM | Km (GFP-Pif1 [3]): 650 ± 630 µM
